Reference: article PMC8955938, “c-Myc Protein Level Affected by Unsymmetrical Bisacridines Influences Apoptosis and Senescence Induced in HCT116 Colorectal and H460 Lung Cancer Cells” (International Journal of Molecular Sciences, 2022)

Tested on: HCT116 cells
Test: Accelerated senescence (SA-β-gal), HCT116
Format: cell-based, human
Conditions: HCT116, IC90 doses, up to 120 h
Protocol: The accelerated senescence examination was based on the analysis of pH 6.0-dependent β-galactosidase (SA-β-gal) expression together with senescence-related morphology, such as enlarged and flattened cells. HCT116 and H460 cells were seeded in 60 mm plates containing microscope coverslips and treated with UAs for up to 120 h. […] The cells were then washed twice with PBS (pH 6.0) and incubated at pH 6.0 with X-gal (5-bromo-4-chloro-3-indolyl-β-D-[…], substrate for SA-β-gal) staining solution (1 mg/mL X-gal, 40 mmol/L citric acid/sodium phosphate, pH 6.0, 5 mmol/L potassium ferrocyanide, 5 mmol/L potassium ferricyanide, 150 mmol/L NaCl, 2 mmol/L MgCl2). Following overnight incubation at 37 °C, cells were washed twice with PBS and observed under a light microscopy (OLYMPUS BX60; magnification ×200).

O=c1c2ccccc2n2cnc3ccc(NCCCN4CCN(CCCNc5c6ccccc6nc6cccc([N+](=O)[O-])c56)CC4)c1c32 [Compound C-2041]
accelerated senescence (SA-β-gal blue staining): a few cells with characteristic blue color were observed
